Laboratory results from patent publication US12291494B2, “Methods of treating fibrosis” (Nogra Pharma Limited, priority 2012, dated 2025).

Tests used:
[1] = system: C57bl6 mice; experiment: DSS intestinal fibrosis study: level of fibrosis by Picrosirius red staining; format: in vivo; conditions: colon; DSS vehicle 2.27±0.12, control 1.12±0.07
Description: Samples of colon obtained were promptly fixed with 10% buffered formalin in PBS (pH 7.4) for 3 h, dehydrated in graded ethanol and embedded in low-temperature-fusion paraffin. Formalin-fixed colonic tissue was processed and 5 μm thick paraffin sections were stained with Picrosirius red staining for histological analysis. Pictures were obtained with a ×20 objective. Each section was analyzed blindly by 3 different experimenters for the quantification of the degree of fibrosis using a score from 0 to 4.

[2] = system: main markers of fibrosis (Collagen I-III, CTGF, SMAD 2/3, PDGF, α-SMA, and TGF-β1); experiment: DSS intestinal fibrosis study: immunohistochemical analysis of colon; format: in vivo, mice
Description: For the immunohistochemical analysis, tissue specimens from the colon were fixed in fresh 4% paraformaldehyde (PFA)/PBS solution for 3 h at room temperature, dehydrated in a graded ethanol series, and embedded in low-temperature-fusion paraffin. 3-μm-thick sections were incubated in methanol for 40 min and then in 3% hydrogen peroxide for 5 min. Samples were incubated overnight with specific antibodies against collagen types I-III (Abcam), connective tissue growth factor (CTGF) (Abcam), Platelet Derived Growth factor (PDGF), SMAD2/3, the main markers of fibrosis. The samples were washed for 5 min with PBS and incubated with streptavidin-biotin-peroxidase conjugated secondary antibody (Dako LSAB Corporation, cod K0675, Dako-Cytomation, Milano). After a wash in PBS for 10 min the sections were subjected to incubation with 3,3-diaminobenzidine-tetrahydrochloride for 1-3 min.
The specificity of immune reaction was performed omitting the primary antibodies Finally the samples were stained with hematoxylin of Mayer and observed under the Olympus BX51 Light Microscope (Olympus, Optical Co. Ltd., Tokyo, Japan).

[3] = system: IL-13; experiment: DSS intestinal fibrosis study: Western blot of colon, IL-13; format: in vivo, mice; conditions: whole colon, OD normalized with GAPDH, expressed as percentage of control groups; DSS 189.5 ± 28.71; listed as GED
Description: (§1) For the Western blot analysis, 0.5 cm of frozen colonic samples were homogenized in RIPA Buffer containing 50 mM Tris HCl pH 7.6, 150 mM NaCl, 1.5 mM MgCl2, 5 mM EDTA, 1% Triton-X and 10% Glycerol, supplemented with 100 mM Sodium Fluoride (NaF), 2 mM Sodium Orthovanadate (Na3VO4), 10 mM Sodium Pyrophosphate (NaPPi), 1 mM phenylmethanesulphone (PMSF) and a classical protease-inhibitor cocktail containing 10 μg/mL Leupeptin and Aprotinin.
(§2) For each sample, 30 μg of protein was separated by PAGE and electroblotted. Nitrocellulose membranes (100% pure) were incubated (according with a specific protocol for each antibody) with primary antibodies directed against CTGF, Collagen-I and GAPDH (purchased from Abcam, Cambridge, UK; 1:1000 for 2 h at RT), diluted in 5% non-fat milk in 0.1% TBS-t. […] Optical density of target bands was determined using a computer-assisted densitometer and the ImageJ public domain software (W. S., Rasband, ImageJ, U. S. National Institutes of Health, Bethesda, MD; http://rsb.info.nih.gov/ij/, 1997-2011). Tissue levels were expressed as units of Optical Density (OD) per quantity of total proteins, normalized with internal control GAPDH and the results were expressed as percentage of control groups.

[4] = system: TGF-β1; experiment: DSS intestinal fibrosis study: Western blot of colon, TGF-β1; format: in vivo, mice; conditions: whole colon, OD normalized with GAPDH, expressed as percentage of control groups; DSS 153.6 ± 26.25
Description: as §1, §2

[5] = system: CTGF; experiment: DSS chronic colitis (Ex. 7): Western blot, CTGF; format: in vivo, mice; conditions: percentage of optical density vs control group, normalized with GAPDH; DSS 115.1%±16.88%
Description: as §1, with “0.5” for “For the Western blot analysis, 0.5”, “were cut and mechanically” for “were”, “mMTrisHCl” for “mM Tris HCl”, “mMNaCl,” for “mM NaCl,”, “mMphenylmethanesulphone” for “mM phenylmethanesulphone”
30 μg of protein for each sample were separated by PAGE and electroblotted. 100% pure Nitrocellulose membranes were incubated (according with a specific protocol for each antibody) with primary antibodies directed against TGF-β1, CTGF, α-SMA, Collagen-I and GAPDH (purchased from Abcam, Cambridge, UK; 1:1000 for 2 h at RT), and IL-13 (purchased from Antibodies online; 1:1000 for 2 h at RT) diluted in 5% non fat-milk in 0.1% TBS-t. […] Optical density of target bands was determined using a computer-assisted densitometer and the ImageJ public domain software (W. S., Rasband, ImageJ, U. S. National Institutes of Health, Bethesda, MD; http://rsb.info.nih.gov/ij/, 1997-2011). Tissue levels were expressed as units of Optical Density (OD) per quantity of total proteins, normalizing with internal control GAPDH and the results were expressed as percentage of control groups.

COC(Cc1ccc(N)cc1)C(=O)O (racemic) [Compound 34, (±)-2-methoxy-3-(4′-aminophenyl) propionic acid]
level of fibrosis, score from 0 to 4 (Picrosirius red) [1]: 1.625±0.15
main markers of fibrosis (Collagen I-III, CTGF, SMAD 2/3, PDGF, α-SMA, TGF-β1) by IHC ([2]; colon of DSS mice vs colitic mice receiving vehicle, FIG. 9A-9E): a reduction of the main markers of fibrosis
collagen staining (immunohistochemical analysis) ([2]; colon of DSS mice, FIG. 9A): decrease in the collagen staining
IL-13 (Western blot) [3]: 88.88±14.01
TGF-β1 (Western blot) [4]: 130.5 ± 28.02
CTGF expression level (Western blot) [5]: 55.57%±17.53%
